Assay in series [1]: not given
This is another data set of the same source.

Molecules are shown by their SMILES.

In the case of `CCS(=O)(=O)c1cccnc1S(=O)(=O)NC(=O)Nc1nc(OC)cc(OC)n1`, the logD (usually lipophilicity at a set pH, counting ionised and neutral species) (pH 5.0) was 0.29. For the compound `CC(C1CC1)C(O)(Cn1cncn1)c1ccc(Cl)cc1` (stereo not drawn), under “pH 7.0”, the logD was 2.91. In the case of `Clc1ccc(C2(Cn3cncn3)CC(Br)CO2)c(Cl)c1` (stereo not drawn), the logP (as a rule, the decadic logarithm of the partition coefficient of the neutral form, usually between octanol and water) turned out to be 3.24. `FC(F)C(F)(F)OCC(Cn1cncn1)c1ccc(Cl)cc1Cl` (stereo not drawn) gave a lipophilicity (logP) of 3.53.

With `CCCN(CCC)C(=O)SCc1ccccc1`, the logP was determined as 4.65. Compound `CCCCCCCCn1sccc1=O` registered a log partition coefficient (logP) of 2.45. `CCOP(=S)(OCC)OC(Cl)C(Cl)(Cl)Cl` (stereo not drawn) came in with a lipophilicity (logP) of 4.59.

Compound `Cc1ccc2nc3sc(=O)sc3nc2c1` came in with a logP of 3.78.

With `Cc1cc(C)nc(Nc2ccccc2)n1`, under “pH 6.1”, the logD stood at 2.84.

Take `CCOC(=O)Cn1c(=O)sc2cccc(Cl)c21`: the log partition coefficient (logP) was 2.5. Compound `COCC(=O)N(c1c(C)cccc1C)N1CCOC1=O` had a logP of 0.73. With `C#CCC1=C(C)C(OC(=O)C2C(C=C(C)C)C2(C)C)CC1=O` (stereo not drawn), the logP was determined as 4.49.

The compound `COc1cc(OC)nc(NC(=O)NS(=O)(=O)N(C)S(C)(=O)=O)n1` came in with a logD (pH 2.0) of 1.63. Compound `CCN(Cc1c(F)cccc1Cl)c1c([N+](=O)[O-])cc(C(F)(F)F)cc1[N+](=O)[O-]` registered a logP of 5.45. `O=C(Nc1ccccc1)Nc1ccnc(Cl)c1` registered a logP of 3.2. In the case of `CNC(=O)ON=C(C)C(C)S(C)(=O)=O` (stereo not drawn), for the setting “pH 6.5”, the log distribution coefficient (logD) was 1.11. Compound `CNC(=O)CSP(=O)(OC)OC` had a log partition coefficient (logP) of -0.75.

The compound `COc1ccsc1CN(C(=O)CCl)c1c(C)cccc1C` had a logP of 3.53. `CC1(C)[C@H](C(=O)O[C@H](C#N)c2cccc(Oc3ccccc3)c2)[C@@H]1/C=C\C(=O)OC(C(F)(F)F)C(F)(F)F`: the lipophilicity (logP) is 5.26.

On to `CCS(=O)(=O)Oc1ccc2c(c1)C(C)(C)CO2`, for which the log partition coefficient (logP) is 2.41. Take `C#CCOC(=O)[C@@H](C)Oc1ccc(Oc2ncc(Cl)cc2F)cc1`: the lipophilicity (logP) was found to be 3.9. Turning to `CCOC(=O)CSc1nc(C(C)(C)C)nn1C(=O)N(C)C`, the logD (pH 7.0) turned out to be 2.69. As to `O=C(NC(=O)c1c(F)cccc1F)Nc1cc(Cl)c(OC(F)(F)C(F)C(F)(F)F)cc1Cl` (stereo not drawn), the lipophilicity (logP) stood at 5.12. For the compound `CC(C)(C)C(O)/C(=C\c1ccc(Cl)cc1)n1cncn1` (stereo not drawn), the lipophilicity (logP) stood at 3.67. Same read-out and setting: the result for `CCCN(CCC)c1c([N+](=O)[O-])cc(C(F)(F)F)c(N)c1[N+](=O)[O-]` reads 4.1. As to `CCOC(=O)CCN(SN(C)C(=O)Oc1cccc2c1OC(C)(C)C2)C(C)C`, the logD (pH 7.0) is 4.3. Compound `O=c1c2cc(F)ccc2nc(-n2cncn2)n1-c1ccc(Cl)cc1Cl` yielded a logD (pH 5.6) of 3.24. The compound `CC1(C)[C@H](C(=O)O[C@H](C#N)c2cccc(Oc3ccccc3)c2)[C@@H]1C(Br)C(Br)(Br)Br` (stereo partly drawn) displayed a logP in series [1] of 5.

On to `O=C(Nc1ccccc1)Nc1cnns1`, for which, for the setting “pH 7.3”, the logD is 1.77. `C=CCCCOC(=O)C(CC)N(Cc1ccco1)C(=O)n1ccnc1` (stereo not drawn): the log partition coefficient (logP) in series [1] stood at 3. In series [1], `CCOCCOC(=O)C(C)Oc1ccc(Oc2ncc(C(F)(F)F)cc2Cl)cc1` (stereo not drawn) displayed a logP of 4.33.

For `CC1(C)CC/C(=C\c2ccc(Cl)cc2)C1(O)Cn1cncn1` (stereo not drawn), the lipophilicity (logP) in series [1] is 3.29. `Clc1ccccc1-c1nnc(-c2ccccc2Cl)nn1`: in series [1], the logP is 3.1. For the compound `C/C=C\COCN(C(=O)CCl)c1c(CC)cccc1CC`, the lipophilicity (logP) in series [1] turned out to be 3.51.

In series [1], `CCC(=O)Nc1ccc(Cl)c(Cl)c1` displayed a logP of 3.3. Consider `CC1=C(C)S(=O)(=O)CCS1(=O)=O`, for which the logP was -0.17.

Take `C[C@@H](Oc1ccc(Oc2ccc(C#N)cc2F)cc1)C(=O)O`: the logP in series [1] was determined as 3.31.

The compound `CC(C)OC(=O)C(C(=O)OC(C)C)=C1SCCS1` returned a log partition coefficient (logP) in series [1] of 3.3. As to `[O-][n+]1nc(-n2ccnc2)nc2ccc(Cl)cc21`, the logP stood at 2.04. Consider `CC(C)=CC1C(C(=O)OCN2C(=O)C3=C(CCCC3)C2=O)C1(C)C` (stereo not drawn), for which the log partition coefficient (logP) in series [1] turned out to be 4.49. In series [1], `CCN(CC)C(=O)C(C)Oc1cccc2ccccc12` (stereo not drawn) had a logP of 3.3. In the case of `CC(Oc1ccc(Oc2cnc3cc(Cl)ccc3n2)cc1)C(=O)OCC1CCCO1` (stereo not drawn), the lipophilicity (logP) was determined as 4.32.

In the case of `CCOP(=S)(OCC)Oc1nc(Cl)n(C(C)C)n1`, the logP in series [1] was 2.99. The compound `O=c1oc2ccccc2c(O)c1C1CC(c2ccc(OCc3ccc(C(F)(F)F)cc3)cc2)Cc2ccccc21` (stereo not drawn) displayed a logP in series [1] of 4.7. The compound `CC(C)N1C(=O)N(c2ccccc2)CS/C1=N\C(C)(C)C` yielded a lipophilicity (logP) in series [1] of 4.3.

The compound `CCSCc1ccccc1OC(=O)NC` registered a log partition coefficient (logP) in series [1] of 2.04. The compound `COc1ccc(C(O)(c2cncnc2)C2CC2)cc1` (stereo not drawn) had a logD (pH 6.5) of 1.91. Turning to `CC(Oc1ccc(Oc2ncc(Cl)cc2Cl)cc1)C(=O)N1CCCO1` (stereo not drawn), in series [1], the logP came to 3.36. For `CN(C)C(=O)Nc1cc(C(C)(C)C)on1`, the logP in series [1] was 1.98.

In turn, `COC(=O)c1c(C(F)F)nc(C(F)(F)F)c(C2=NCCS2)c1CC(C)C` yielded a logP of 3.89. As for `O=S(=O)(c1ccc(Cl)cc1)c1cc(Cl)c(Cl)cc1Cl`, the logP in series [1] is 4.61. In turn, `C=CCN(CC=C)C(=O)C(Cl)Cl` had a lipophilicity (logP) in series [1] of 1.84. `CC(C)C(O)(c1ccc(OC(F)(F)F)cc1)c1cncnc1` (stereo not drawn) showed a pH-dependent lipophilicity (logD) (pH 7.0) of 3.34. For the compound `CN1CSC(=S)N(C)C1`, the logD (pH 7.0) was 1.4. In turn, `COCCN(C(=O)CCl)c1c(C)cccc1C` returned a lipophilicity (logP) in series [1] of 2.2.

Regarding `CCCCOC(=O)[C@@H](C)Oc1ccc(Oc2ccc(C(F)(F)F)cn2)cc1`, in series [1], the log partition coefficient (logP) came out at 4.5. For the compound `CCOC1Oc2ccc(OS(C)(=O)=O)cc2C1(C)C` (stereo not drawn), the logP in series [1] is 2.7. In series [1], `NC(=O)c1nc(-c2ccccc2)n(-c2ccc(Cl)c(COCC(F)(F)C(F)(F)F)c2)n1` had a lipophilicity (logP) of 3.27.

Turning to `CC1=NNC(=O)N(/N=C/c2cccnc2)C1`, in series [1], the logP was -0.18. Take `C/C(=N\C#N)N(C)Cc1ccc(Cl)nc1`: the log partition coefficient (logP) amounted to 0.8. For `CCSCCSP(=O)(OC)OC`, the logP in series [1] amounted to 1.32. In the case of `O=[N+]([O-])c1ccc(NS(=O)(=O)c2ccc(Cl)c(C(F)(F)F)c2)c(Cl)c1`, in series [1], the lipophilicity (logP) amounted to 2.4. `CCCCCC(C)OC(=O)COc1ccc(Cl)c2cccnc12` (stereo not drawn) returned a logP of 5.03. The same measure, in the same setting: the value for `CC1(C)OC(c2ccco2)CN1C(=O)C(Cl)Cl` (stereo not drawn) was 2.12.

`COP(=S)(OC)Oc1ccc(C#N)cc1` displayed a lipophilicity (logP) in series [1] of 2.65. Consider `CCCCC(CC)N1C(=O)C2C3C=CC(C3)C2C1=O` (stereo not drawn), for which, in series [1], the log partition coefficient (logP) was determined as 3.8.

As to `CCNc1nc(Cl)nc(NCC)n1`, in series [1], the logP was found to be 2.1. `CCN(CC)C(=O)SCc1ccccc1Cl`: the logP in series [1] is 3.43.

In series [1], `O=C1C2CC=CCC2C(=O)N1SC(Cl)(Cl)Cl` (stereo not drawn) yielded a logP of 2.78. On to `COc1cc(OC)n2nc(S(=O)(=O)Nc3c(Cl)ccc(C)c3Cl)nc2n1`, for which, under “pH 7.0”, the log distribution coefficient (logD) was determined as 2.46. `O=C1c2ccccc2C(=O)N1SC(Cl)(Cl)Cl` gave a log partition coefficient (logP) in series [1] of 3.11. In turn, `Cc1cc(C2CC2)nc(Nc2ccccc2)n1` registered a pH-dependent lipophilicity (logD) (pH 5.0) of 3.9. `CNC(=O)ON=C(C)C(C)SC` (stereo not drawn) had a lipophilicity (logP) in series [1] of 1.11. For the compound `O=CNC(N1CCN(C(NC=O)C(Cl)(Cl)Cl)CC1)C(Cl)(Cl)Cl` (stereo not drawn), the logP in series [1] worked out at 2.2. In series [1], `CCOC(=O)C(Cl)Cc1cc(-n2nc(C)n(C(F)F)c2=O)c(F)cc1Cl` (stereo not drawn) gave a logP of 3.36. Still for that read-out and setting: the value for `CN(C)C(=O)Nc1ccc(Cl)c(Cl)c1` was 2.85; that for `O=C1C(Cl)=C(Cl)C(=O)N1c1ccc(F)cc1` was 2.3; that for `CC(C)OC(=O)C(O)(c1ccc(Br)cc1)c1ccc(Br)cc1` was 5.4.

The values above are taken from the SangsterLogP compilation.
